Read-outs that look alike come from different tables or passages of the source.
Experiments:
[1] = test system: Plasmopara viticola; experiment: Curative effect on downy mildew of grapes; type: in vivo, grapes (var: Bailey-A); details: sprayed the day after inoculation, observed after 8 days, percent disease control
Excerpt: (§1) Typical test data indicating the excellent fungicidal activity of the amide compounds (I) are shown below. The assessment data are converted to percent disease control. 100 % means no infection; 0 % means that the plant are totally infected compared with the control plant.
A plastic pot was filled with sandy soil, and seeds of grapes (var: Bailey-A) were sowed therein, followed by cultivation in a greenhouse for 50 days. A spore suspension of Plasmopara viticola was inoculated by spreading over the seedlings at the 6 to 7 leaf-stage of the test plants, which were then allowed to stand at 20°C overnight under a humid condition. The test compound formulated in a wettable powder according to Formulation Example 1 and diluted with water to a prescribed concentration was thoroughly sprayed over the test plants, which were further grown for 8 days under illumination and observed.

[2] = test system: Phytophthora infestans; type: in vivo, tomato (var: Ponte Rosa); details: sprayed the day after inoculation, observed after 5 days, percent disease control
[3] = test system: Pseudoperonospora cubensis; experiment: Curative effect on downy mildew of cucumber; type: in vivo, cucumber (var: Sagamihanjiro); details: sprayed the day after inoculation, observed after 8 days, percent disease control
Excerpt: as §1
A plastic pot was filled with sandy soil, and seeds of cucumber (var: Sagamihanjiro) were sowed therein, followed by cultivation in a greenhouse for 14 days. A spore suspension of Pseudoperonospora cubensis was inoculated by spreading over the seedlings of the test plants, which were then allowed to stand at 20°C overnight under a humid condition. The test compound formulated in a wettable powder according to Formulation Example 1 and diluted with water to a prescribed concentration was thoroughly sprayed over the test plants, which were further grown for 8 days under illumination and observed.

Row | Compound | Curative effect Grape ([1]; 100 ppm) | Curative effect Grape ([1]; 200 ppm) | Curative effect Tomato ([2]; 100 ppm) | Curative effect Tomato ([2]; 200 ppm) | Curative effect Cucumber ([3]; 100 ppm) | Curative effect Cucumber ([3]; 200 ppm)
1 | CCOC(C#N)NC(=O)c1sc(C)nc1C (centres unmarked) [Compound 2, 2-ethoxy-2-(2,4-dimethylthiazole-5-carboxamino)acetonitrile] | 100% | 100% | 95% | 100% | 95% | 100%
2 | C#CCCOC(C#N)NC(=O)c1sc(C)nc1C (centres unmarked) [Compound 4, 2-(butynyl-3-oxy)-2-(2,4-dimethylthiazole-5-carboxamino)acetonitrile] |  | 100% | 90% | 100% |  | 100%
3 | CCOC(C#N)NC(=O)c1sc(C)nc1CC (centres unmarked) [Compound 6, 2-ethoxy-2-(4-ethyl-2-methylthiazole-5-carboxamino)acetonitrile] | 100% | 100% | 100% | 100% |  | 100%
4 | CCCOC(C#N)NC(=O)c1sc(C)nc1CC (centres unmarked) [Compound 7, 2-n-propoxy-2-(4-ethyl-2-methylthiazole-5-carboxamino)acetonitrile] | 90% | 100% | 100% | 100% | 90% | 100%
5 | C#CCCOC(C#N)NC(=O)c1sc(C)nc1CC (centres unmarked) [Compound 10, 2-(butynyl-3-oxy)-2-(4-ethyl-2-methylthiazole-5-carboxamino)acetonitrile] | 90% | 100% | 95% | 100% | 95% | 100%
6 | CCc1nc(C)sc1C(=O)NC(C#N)OCCC#N (centres unmarked) [Compound 11, 2-(2-cyanoethoxy)-2-(4-ethyl-2-methylthiazole-5-carboxamino)acetonitrile] | 100% | 100% | 100% | 100% | 90% | 100%
7 | CCSC(C#N)NC(=O)c1sc(C)nc1CC (centres unmarked) [Compound 12, 2-ethylthio-2-(4-ethyl-2-methylthiazole-5-carboxamino)acetonitrile] | 90% | 100% | 95% | 100% | 90% | 100%
8 | CCCc1nc(C)sc1C(=O)NC(C#N)OCC (centres unmarked) [Compound 13, 2-ethoxy-2-(4-n-propyl-2-methylthiazole-5-carboxamino)acetonitrile] |  | 90% | 90% | 95% | 90% | 95%
9 | CCOC(C#N)NC(=O)c1sc(C)nc1C(C)C (centres unmarked) [Compound 14, 2-ethoxy-2-(4-isopropyl-2-methylthiazole-5-carboxamino)acetonitrile] | 90% | 100% | 100% | 100% | 100% | 100%

— patent publication EP0350946A2 (priority 1988, dated 1990)
